Patent US20100183754A1, “Extract and compound for blood pressure regulation” (Taipei Medical University, priority 2009, published 2010)
pIC50: −log10 of the molar value.

Assays:
[1] = system: spontaneous hypertensive rats (SHRs); assay: 24-hour blood pressure test of SHRs after single oral administration; type: in vivo, rat; settings: single oral administration 10 mg/kg, versus control fed distilled water
Description: The Vitis thunbergii var. taiwaniana extracts of the present invention were used in the in vivo blood pressure regulation assay. The present embodiment was performed on 24 heads of five- to six-week old male spontaneous hypertensive rats (SHRs). The rats were housed for 7 weeks and then used for the assay while they were about twelve- to thirteen-week old. The SHRs were randomly divided into experimental group (12 heads of SHRs) and control group (12 heads of SHRs). The rats of the experimental group were fed with the Vitis thunbergii var. taiwaniana extract obtained in example 1, and the rats of the control group were fed with distilled water for instead. After oral administration by feeding tube, the blood pressure of all SHRs was measured for a certain time interval.
Similarly, the hot water extract of the roots and stems of the Vitis thunbergii var. taiwaniana cultivated in field for 5 to 6 months, which was transferred from tissue culture plantlets, was used in a 24-hour blood pressure test, as shown in FIG. 7 (the rats of the control group were fed with distilled water).
Moreover, the blood pressure of the SHRs fed with (+)-vitisin A purified in example 5 was measured during 24 hours after single oral administration.

[2] = molecular target: ACE (Homo sapiens, UniProt P12821); assay: In vitro ACE inhibiting assay; type: biochemical; settings: for ACE inhibiting activity (FIG. 11): purified in example 5, various concentrations
Excerpt: Wherein, the data of TC-1 to TC-4 are obtained from the whole plant extracts of Vitis thunbergii var. taiwaniana cultured by various plant growth substrates, respectively.
Moreover, the hot water extract of the Vitis thunbergii var. taiwaniana tea powder obtained in example 2 is used to perform the same ACE inhibiting assay, as shown in FIG. 6. […] Method A: culturing the tissue culture plantlet for 30 days, replacing the old culture medium with new culture medium, and then culturing the plantlet for another 60 days; in which the plantlet were cultured for 90 days. Method B: culturing the tissue culture plantlet for 30 days, directly adding the new culture medium onto the old culture medium, and then culturing for another 60 days; in which the plantlet were cultured for 90 days.
Various concentration of (+)-vitisin A and ampelopsin C purified in example 5 were used to perform ACE inhibiting activity assay.

ACE, sequence (P12821 30-1306, species assumed): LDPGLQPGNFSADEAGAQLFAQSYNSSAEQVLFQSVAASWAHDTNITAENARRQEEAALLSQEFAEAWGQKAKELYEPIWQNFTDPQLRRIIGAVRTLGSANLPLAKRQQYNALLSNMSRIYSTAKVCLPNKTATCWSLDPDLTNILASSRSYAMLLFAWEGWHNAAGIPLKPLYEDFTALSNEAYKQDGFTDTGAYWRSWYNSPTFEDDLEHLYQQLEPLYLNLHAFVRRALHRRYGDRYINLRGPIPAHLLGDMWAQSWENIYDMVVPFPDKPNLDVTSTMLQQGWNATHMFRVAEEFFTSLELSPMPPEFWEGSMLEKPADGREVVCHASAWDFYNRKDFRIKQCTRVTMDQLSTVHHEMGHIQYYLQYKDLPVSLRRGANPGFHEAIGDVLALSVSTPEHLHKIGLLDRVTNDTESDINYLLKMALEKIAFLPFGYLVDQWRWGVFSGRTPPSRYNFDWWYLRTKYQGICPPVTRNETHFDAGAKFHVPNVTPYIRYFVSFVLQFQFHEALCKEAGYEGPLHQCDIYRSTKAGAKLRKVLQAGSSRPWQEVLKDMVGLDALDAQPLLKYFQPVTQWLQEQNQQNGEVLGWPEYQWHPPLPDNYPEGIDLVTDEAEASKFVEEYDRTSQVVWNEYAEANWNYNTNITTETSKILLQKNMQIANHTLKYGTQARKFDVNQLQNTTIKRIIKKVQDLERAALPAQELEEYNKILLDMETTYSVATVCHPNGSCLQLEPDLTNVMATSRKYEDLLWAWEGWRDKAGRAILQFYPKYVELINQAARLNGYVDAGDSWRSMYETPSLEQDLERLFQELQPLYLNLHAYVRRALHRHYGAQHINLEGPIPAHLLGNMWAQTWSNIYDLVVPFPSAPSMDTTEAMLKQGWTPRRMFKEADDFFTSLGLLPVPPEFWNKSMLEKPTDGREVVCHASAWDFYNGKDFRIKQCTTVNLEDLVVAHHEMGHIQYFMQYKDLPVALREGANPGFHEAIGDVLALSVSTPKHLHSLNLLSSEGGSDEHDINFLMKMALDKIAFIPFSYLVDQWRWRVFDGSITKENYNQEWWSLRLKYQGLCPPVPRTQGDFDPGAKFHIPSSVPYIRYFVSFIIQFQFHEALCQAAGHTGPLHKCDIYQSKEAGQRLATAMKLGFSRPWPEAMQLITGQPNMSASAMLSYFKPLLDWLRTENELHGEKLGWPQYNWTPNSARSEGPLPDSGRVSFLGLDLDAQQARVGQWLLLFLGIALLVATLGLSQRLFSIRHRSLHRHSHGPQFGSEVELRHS

SMILES | blood pressure of SHRs in the period of 24 hours (FIG. 12) [1] | ACE inhibiting activity (FIG. 11) [2] | pIC50 ([2]; purified in example 5, FIG. 11)
Oc1ccc([C@H]2c3c(O)cc(O)cc3[C@H]3c4c(cc(O)cc4[C@@H]2c2cc(/C=C/c4cc(O)cc5c4[C@H](c4cc(O)cc(O)c4)[C@@H](c4ccc(O)cc4)O5)ccc2O)O[C@@H]3c2ccc(O)cc2)cc1 [(+)-vitisin A] | decreases significantly | obviously have ACE inhibiting activity | –
Oc1ccc([C@H]2c3c(O)cc4c5c3[C@@H]([C@H](c3ccc(O)cc3)c3c(O)cc(O)cc3[C@H]5[C@H](c3ccc(O)cc3)O4)[C@@H]2c2cc(O)cc(O)c2)cc1 [ampelopsin C] | – | obviously have ACE inhibiting activity | 4.74
